Active and inactive are the calls of the source. No cut-off for these calls is given here.

A short description of assay [1]: Antitumor activity against Her2-positive human MDA-MB-231-LM24 cells xenografted in SCID-beige mouse harboring Td-tomato and Luc2 assessed as survival days at 2.5 mg/kg, iv administered every 7 days for 28 days (reference value: 9.5 days). The format is functional.
Assay [2] is described as follows: Antitumor activity against Her2-positive human MDA-MB-231-LM24 cells xenografted in SCID-beige mouse harboring Td-tomato and Luc2 assessed as survival days at 1.25 mg/kg, iv administered every 7 days for 28 days (reference value: 9.5 days). Format: functional.
Assay [3] deals with MDA-MB-231. In words: Antiproliferative activity against human MDA-MB-231 cells at 25 uM after 48 hrs by MTS assay relative to control. Format: functional. For orientation: Tetrazolium dyes change colour on reduction, which living cells bring about.
The nature of assay [4]: Antiproliferative activity against human MDA-MB-231-LM24 cells after 48 hrs by MTS assay. The format is functional, cell-based. The settings on record: MDA-MB-231-LM24, 48 h.
A short description of assay [5]: Antitumor activity against Her2-positive human MDA-MB-231-LM24 cells xenografted in SCID-beige mouse harboring Td-tomato and Luc2 assessed as tumor growth inhibition at 2.5 mg/kg, iv administered every 7 days for 28 days relative to control. The format is functional. The settings on record: MDA-MB-231-LM24, iv, read-out: TGI. Background: A xenograft is tissue or cells of one species grown in another, often human tumour cells in immunodeficient mice.

Assay [6] concerns MDA-MB-231-LM24. In words: Antimetastatic activity against Her2-positive human MDA-MB-231-LM24 cells xenografted in SCID-beige mouse harboring Luc2 assessed as reduction in tumor burden in lung at 2.5 mg/kg, iv administered every 7 days for 2 weeks by bioluminescence analysis. The format is functional, organism-based.

For the molecule `COc1cccc2c1C(=O)c1c(O)c3c(c(O)c1C2=O)C[C@@](O)(C(=O)CO)C[C@@H]3O[C@H]1C[C@H](N)[C@H](O)[C@H](C)O1` [DOXORUBICIN], the Survival in assay [1] stood at 14 days; in assay [2], 20 days.
For the molecule `CO[C@]1(C)OC2=C(O[C@@]1(C)OC)c1nc2nc2[nH]c(nc3nc(nc4[nH]c(n1)c1c4O[C@@](C)(OC)[C@](C)(OC)O1)C1=C3O[C@@](C)(OC)[C@](C)(OC)O1)c1c2O[C@@](C)(OC)[C@](C)(OC)O1`, the result in assay [3] was inactive.
Molecule `CO[C@]1(C)OC2=C(O[C@@]1(C)OC)c1nc2nc2[nH]c(nc3nc(nc4[nH]c(n1)c1c4O[C@@](C)(OC)[C@](C)(OC)O1)-c1c(OCCO)ccc(OCCO)c1-3)c1c2O[C@@](C)(OC)[C@](C)(OC)O1` came in with an Activity in assay [3] of 40%. Further, the IC50 in assay [4] worked out at 15 µM. The Survival in assay [1] worked out at 22.5 days. Further, the inhibition in vivo at 2.5 mg/kg in assay [5] was more than 65%. For the same molecule, the outcome in assay [6] was Active.

What is called IC50 is the concentration at which inhibition is half-maximal. Lower therefore signals inhibition by little substance.

(Values after ChEMBL document CHEMBL4033766, “Discovery of the Antitumor Effects of a Porphyrazine Diol (Pz 285) in MDA-MB-231 Breast Tumor Xenograft Models in Mice” (ACS Med Chem Lett, 2017).)
